Assay results: US6348486B1, “Methods for modulating bladder function” (American Home Products Corporation, priority 2000, dated 2002)

Tests used:
[1] = tested on: isolated carbachol contracted rat bladder strips; test: Relaxation of isolated carbachol contracted rat bladder strips
Experimental: (§1) Using quantitative rtPCR, the expression of KCNQ1, KCNQ3 and KCNQ5 potassium channels was identified in the rat urinary bladder. […] To further probe M-current activity in the bladder, retigabine (10 μM, M-current agonist) was tested in isolated bladder smooth muscle cells using standard patch-clamp techniques. […] This hyperpolarization was reversed by the addition of linopirdine (50 μM an M-current antagonist) to the tissue bath. […] This relaxation was reversed by the M-current blockers linopirdine and XE-991.

[2] = molecular target: T1, KCNQ2/3 potassium channels (Homo sapiens, UniProt O43525+O43526); details: oocytes; cited from earlier work
T1 construct: host or cells: oocytes (heterologous expression, as described in the cited article)

[3] = tested on: isolated bladder smooth muscle cells; test: Patch-clamp of isolated bladder smooth muscle cells (M-current activity); type: cell-based, rat
Experimental: as §1

T1 sequence (O43526 whole entry): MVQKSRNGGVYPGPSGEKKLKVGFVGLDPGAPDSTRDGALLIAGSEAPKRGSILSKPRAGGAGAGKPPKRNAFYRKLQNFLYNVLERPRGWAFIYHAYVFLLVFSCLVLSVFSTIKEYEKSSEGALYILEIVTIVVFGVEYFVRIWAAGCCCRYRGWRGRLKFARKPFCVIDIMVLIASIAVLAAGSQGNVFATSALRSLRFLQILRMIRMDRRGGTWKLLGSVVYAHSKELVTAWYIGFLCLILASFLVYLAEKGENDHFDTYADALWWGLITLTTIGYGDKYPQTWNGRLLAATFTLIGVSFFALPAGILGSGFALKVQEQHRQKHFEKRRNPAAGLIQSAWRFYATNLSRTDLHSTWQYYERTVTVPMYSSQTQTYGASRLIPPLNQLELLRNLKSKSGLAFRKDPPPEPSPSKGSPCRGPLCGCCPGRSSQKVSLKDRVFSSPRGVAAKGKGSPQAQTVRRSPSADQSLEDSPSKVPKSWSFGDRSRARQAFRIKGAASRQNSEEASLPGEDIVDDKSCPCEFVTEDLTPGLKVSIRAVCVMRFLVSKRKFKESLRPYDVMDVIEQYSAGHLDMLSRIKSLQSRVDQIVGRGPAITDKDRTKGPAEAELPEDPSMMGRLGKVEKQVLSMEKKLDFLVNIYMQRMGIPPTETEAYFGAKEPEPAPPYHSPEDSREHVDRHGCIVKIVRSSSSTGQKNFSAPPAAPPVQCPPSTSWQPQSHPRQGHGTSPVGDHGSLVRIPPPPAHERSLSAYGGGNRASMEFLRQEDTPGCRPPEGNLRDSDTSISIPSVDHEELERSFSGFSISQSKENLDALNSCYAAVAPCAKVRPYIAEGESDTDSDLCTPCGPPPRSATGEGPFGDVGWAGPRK
T1 sequence (O43525 whole entry): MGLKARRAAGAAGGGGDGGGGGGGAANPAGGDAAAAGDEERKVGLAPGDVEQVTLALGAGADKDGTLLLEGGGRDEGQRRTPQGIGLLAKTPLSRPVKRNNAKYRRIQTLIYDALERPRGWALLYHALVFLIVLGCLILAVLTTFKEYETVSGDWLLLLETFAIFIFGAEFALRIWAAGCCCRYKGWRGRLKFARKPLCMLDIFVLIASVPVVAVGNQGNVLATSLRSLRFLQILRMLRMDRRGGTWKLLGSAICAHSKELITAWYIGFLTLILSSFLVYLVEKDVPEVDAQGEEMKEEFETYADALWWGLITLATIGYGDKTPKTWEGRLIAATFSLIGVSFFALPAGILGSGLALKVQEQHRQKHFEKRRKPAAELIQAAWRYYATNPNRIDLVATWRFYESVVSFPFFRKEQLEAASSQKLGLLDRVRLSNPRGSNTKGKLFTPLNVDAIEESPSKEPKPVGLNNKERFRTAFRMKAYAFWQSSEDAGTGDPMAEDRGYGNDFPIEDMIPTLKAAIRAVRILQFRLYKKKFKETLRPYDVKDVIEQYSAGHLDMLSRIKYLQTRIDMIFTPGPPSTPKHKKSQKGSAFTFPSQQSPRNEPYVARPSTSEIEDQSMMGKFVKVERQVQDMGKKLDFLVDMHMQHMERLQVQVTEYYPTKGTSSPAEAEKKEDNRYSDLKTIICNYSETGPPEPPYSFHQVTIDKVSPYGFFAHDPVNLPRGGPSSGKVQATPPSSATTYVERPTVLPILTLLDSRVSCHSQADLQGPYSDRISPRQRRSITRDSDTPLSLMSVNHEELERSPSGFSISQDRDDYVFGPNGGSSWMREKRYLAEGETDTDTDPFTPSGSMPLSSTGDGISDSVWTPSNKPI

| Structure (SMILES) | reversal of retigabine-induced relaxation by M-current blockers [1] | IC50 ([1]; Rattus norvegicus, read-out: IC50 for relaxation of carbachol contracted bladder strips) | channel deactivation [2] | rate of channel activation [2] | voltage dependence of channel activation [2] | membrane hyperpolarization ([3]; retigabine 10 μM, n=5) | outward current insensitive to iberiotoxin ([3]; retigabine 10 μM, standard patch-clamp) | reversal of retigabine-induced hyperpolarization ([3]; linopirdine 50 μM added to the tissue bath) |
| --- | --- | --- | --- | --- | --- | --- | --- | --- |
| O=C1c2ccccc2C(Cc2ccncc2)(Cc2ccncc2)c2ccccc21 [XE-991] | reversed | – | – | – | – | – | – | – |
| CCOC(=O)Nc1ccc(NCc2ccc(F)cc2)cc1N [retigabine, N-[2-amino-4-(4-fluorobenzylamino)-phenyl]carbamic acid ethyl ester] | – | 3.5 ± 0.9 µM | slows channel deactivation | increases the rate of channel activation | shifts the voltage dependence of channel activation to more hyperpolarized membrane potentials | 17.8±3.0 mV | significantly increased | – |
| O=C1N(c2ccccc2)c2ccccc2C1(Cc1ccncc1)Cc1ccncc1 [linopirdine] | reversed | – | – | – | – | – | – | reversed |
